In one series the test system is CCR18 (Lamivudine^R). Put plainly: Drug-resistant clinical isolates in PBMCs (p24). The class given is cell-based, HIV-1. The conditions noted are these: Human immunodeficiency virus 1, PBMC. Here is the method: (§1) ANTIVIRAL ASSAYS. The anti-HIV-1 activity of the compound A (−) were assessed by employing HIV-1IIIB in a variety of cell types as previously described (Gu et al., 1992, 1994, 1999; Rando et al., 1995; Salomon et al., 1994). Briefly, cells were incubated with virus at a multiplicity of infection (MOI) of 0.005 for T cell assays and an MOI of 0.5 for monocytic cell assays for 3 hrs. Unbound virus was then removed by washing the cells, followed by seeding the cells into a 96-well plate. The infected cells were cultured in the presence of a serial concentrations of the test compound for 5-7 days. The anti-HIV-1 efficacy was determined by testing for HIV-1 RT activity or p24 level in the cell culture supernatants. All assays were performed in duplicate. Zidovudine and/or lamivudine were used as controls in each experiment.
(§2) Clinical strains were isolated from PBMCs of HIV-1 infected individuals through co-culture with PBMCs from normal dornors. To determine the RT genotype of the HIV-1 clinical isolates, the proviral DNA was extracted from infected CD4^+ T-cells or PBMCs and the complete RT coding regions were amplified by PCR as previously reported (Gu et al 1992). The PCR product was purified and then directly sequenced using primer RTS (5′-CCAAAAGTTAAACAATGGC-3′) which is located at the 5′ portion of the RT coding region (nucleotide 2603-2621 of HXB2-D coordinates). Antiviral activity was evaluated as described in example 10.

A further series deals with CCR15 (Lamivudine^R). The series is described as follows: Drug-resistant clinical isolates in PBMCs (p24). In kind it is cell-based, HIV-1. Particulars: Human immunodeficiency virus 1, PBMC. Here is the method:
as §1, §2

A further series has as its system 105/F (zidovudine^R). Put plainly: Drug-resistant clinical isolates in PBMCs (p24). The conditions noted are these: Human immunodeficiency virus 1, PBMC. The class given is cell-based, HIV-1. Here is the method: as §1, §2
The test system of a further series is 105/A (wt). Put plainly: Drug-resistant clinical isolates in PBMCs (p24). In kind it is cell-based, HIV-1. Particulars: Human immunodeficiency virus 1, PBMC. As for the experimental part:
as §1, §2

In another series the test system is CCR19 (Lamivudine^R). Put plainly: Drug-resistant clinical isolates in PBMCs (p24). The conditions noted are these: Human immunodeficiency virus 1, PBMC. The class given is cell-based, HIV-1. Here is the method: as §1, §2
The test system of the next series is HIV-1IIIB. Put plainly: Anti-HIV-1 antiviral assay with HIV-1IIIB in various cell types (RT activity). In kind it is cell-based. As for the experimental part: as §1
Activity of the compound A (−) against HIV-1 in various cells. Anti-HIV-1 activity of the compound A (−) were tested in different types of cells, including human peripheral […] cells (PBMCs), T-cell (MT-2 and MT-4) and monocytic cell (U937) lines. The compound A (−) had submicromolar EC50s against HIV-1IIIB in different types of cells tested (Table 2).

A short description of series [1]: Cellular toxicity by [3H]-thymidine uptake. Particulars: human. In kind it is cell-based. As for the experimental part: (§3) The cellular toxicity of the compounds were assessed on various cells using [^3H]-thymidine uptake. Various cells, including Molt-4, HT1080, DU-145, HepG-2 and HSF, were plated at a concentration of 1-2×10^3 cells per well (96 well plates). After a 24 hr incubation period, 10-fold serial diluted compounds (b 10^−4 M to 10^−10 M) were added to the culture medium and the cells were further incubated for 72 hrs. [^3H]-thymidine was added during the final 18 hr incubation period. After incubation with the [^3H]-thymidine, the cells were washed once with PBS, treated with trypsin if the cells were adherent, and then resuspended in water (hypotonic lysing of cells). The cellular extract was applied directly to a Tomtec Harvester 96. Using this instrument the extracted DNA is adsorbed onto filters, washed and the incorporated [^3H]-thymidine is then counted. The 50% cytotoxic concentration (CC50) was determined by comparing the radioactive counts per minute of the samples in the presence of the compounds against the control. The cellular toxicity of the compounds was also tested by WST-1 staining through assessing proliferation of MT-2, H9, Jurkat, U937, and CBMCs. The established cell lines were cultured in RPMI medium in 96-well plates at a density of 5×10^4 cells/well while CBMCs were plated at a concentration of 0.5×10^6/well. A 10-fold serial diluted (10^−4-10^−7 M) compound was added at day zero. At day 4, the cells were passaged by changing half medium containing appropriately diluted compound. The cell activities were assessed at day 7 using the WST-1 reagent (Boehringer Mannheim) following the protocol provided by the supplier.
(§4) Cellular toxicity was assessed by [^3H]thymidine uptake (de Muys et al. 1999) and WST-1 staining. In the [^3H]thymidine uptake experiments, Molt-4, HT1080, DU-145, HepG2 and HSF, were plated at a concentration of 1-2×10^3 cells per well (96 well plates). PHA-stimulated PBMCs were cultured at a concentration of 4×10^4 cells per well. Following a 24 hr pre-incubation period, test compounds (10^−4 M to 10^−10 M) were added and the cells were incubated for an additional 72 hrs. [^3H]thymidine was added during the final 18 hr incubation period. The cells were then washed once with PBS, treated with trypsin if the cells were adherent, and resuspended in water (hypotonic lysing of cells). The cellular extract was applied directly to a Tomtec Harvester 96. The 50% cytotoxic concentration (CC50) was determined by comparing the radioactive counts per minute obtained from drug-tested samples to those obtained from the control (untreated) cells.

Series [2] is described as follows: Cellular toxicity by [3H]-thymidine uptake. In kind it is cell-based, human. Particulars: human, Table 14, PHA-stimulated PBMCs, read-out: CC50 (μM) [^3H]TTP incorporation in: PBMC. Here is the method:
as §4

Another series relates to PBMCs. The series is described as follows: Cellular toxicity by [3H]-thymidine uptake. The class given is cell-based, human. Particulars: Table 4; 72 hrs. Here is the method:
as §4

Series [3] is described as follows: Cellular toxicity by WST-1 staining. The class given is cell-based. Particulars: human, CBMCs, Table 4, day 7, read-out: CC50 (μM) WST-1 CBMC. Here is the method:
as §3
In the WST-1 staining experiments, cell lines were cultured in RPMI medium in 96-well plates at a density of 5×10^4 cells/well. CBMCs were plated at a concentration of 0.5×10^6/well. Compounds (10^−4-10^−7 M) were added at day zero. Cell viability was assessed on day 7 using the WST-1 reagent (Boehringer Mannheim) following the protocol provided by the supplier.
For orientation: Formazan colour is commonly taken as a measure of viable cells.

A further series deals with NNRTI^R. The series is described as follows: Recombinant drug resistant HIV-1 variants (RT activity). In kind it is cell-based. Particulars: Human immunodeficiency virus 1. As for the experimental part:
as §1
(§5) Recombinant HIV-1 variants were prepared by introducing the designed mutations into HXB2-D by site-directed mutagenesis as described (Gu et al. 1992, 1994). The virus stocks were prepared by transfecting MT-4 cells with infectious viral DNA constructs. Antiviral activity of the compound A (−) was evaluated as described in example 10.

Another series has as its system HXB2-D (wt). Put plainly: Recombinant HIV-1 variants (RT activity). In kind it is cell-based. Particulars: Human immunodeficiency virus 1, HXB2. Here is the method: as §1, §5
The next series has as its system PI^R. Put plainly: Recombinant drug resistant HIV-1 variants (RT activity). The class given is cell-based. Particulars: Human immunodeficiency virus 1. As for the experimental part: as §1, §5
Setting [4] is: Human immunodeficiency virus 1, MT2, HIV-1IIIB, MT-2 cells, determined by RT activity, read-out: EC50 (μM) ± S.D. in MT-2 cells.

These results are taken from patent US20010049372A1, “Antiviral nucleoside analogues” (BioChem Pharma Inc., priority 1998, published 2001).

Like-named read-outs stand apart in the source and are kept apart here.

As a reminder, the IC50 is the midpoint of a concentration-inhibition curve. Low readings indicate greater potency in that assay, high ones weaker potency in that assay. One may read the EC50 as the concentration needed to bring the measured effect to its halfway point.

Take `Nc1nc(NC2CC2)c2ncn([C@H]3C=C[C@@H](CO)C3)c2n1` [Abacavir, abacavir]: the concentration for half-maximal inhibition (IC50) in the series on CCR18 (Lamivudine^R) is 1300 nM; in the series with CCR15 (Lamivudine^R), 220 nM; in the series on 105/F (zidovudine^R), 70 nM; with 105/A (wt), less than 30 nM; in the series with CCR19 (Lamivudine^R), 580 nM. Further, in the series on HIV-1IIIB (setting [4]), the half-maximal effective concentration (EC50) amounted to 0.1 µM.

As for `Nc1ncnc2c1ncn2CCOCP(=O)(O)O` [Adefovir, adefovir], the IC50 in the series with CCR18 (Lamivudine^R) is 2100 nM; with CCR15 (Lamivudine^R) it was 800 nM; with 105/F (zidovudine^R) it was 7000 nM; in the series on 105/A (wt), 2000 nM; in the series with CCR19 (Lamivudine^R), 2300 nM.

Take `Cc1cn([C@H]2C=C[C@@H](CO)O2)c(=O)[nH]c1=O` [Stavudine, stavudine]: the half-inhibitory concentration (IC50) in the series on CCR18 (Lamivudine^R) turned out to be 49 nM; with CCR15 (Lamivudine^R) it was 60 nM; in the series with 105/F (zidovudine^R), 120 nM; with 105/A (wt), 63 nM; in the series with CCR19 (Lamivudine^R), 50 nM. The concentration for a half-maximal effect (EC50) with HIV-1IIIB (Human immunodeficiency virus 1, MT2, read-out: EC50 (μM) ± S.D. in MT-2 cells) turned out to be 0.38 ± 0.26 µM.

As to `Nc1ccn([C@H]2CC[C@@H](CO)O2)c(=O)n1` [Zalcitabine, zalcitabine], the CC50 at 72 h in series [1] (DU-145 cells, Table 4, read-out: CC50 (μM) [^3H-]TTP incorporation in: U-145) turned out to be 5 µM; in series [1] (DU-145 cells, Table 14, read-out: CC50 (μM) [^3H]TTP incorporation in: U145), 3.5 µM; in [1] (HSF cells, Table 14, read-out: CC50 (μM) [^3H]TTP incorporation in: HSF), 2 µM; in series [1] (HT1080 cells, Table 4, read-out: CC50 (μM) [^3H-]TTP incorporation in: HT1080) it was 2 µM; in series [1] (HT1080 cells, Table 14, read-out: CC50 (μM) [^3H]TTP incorporation in: HT800) it was 2.5 µM; in [1] (HepG2 cells, Table 4, read-out: CC50 (μM) [^3H-]TTP incorporation in: HepG2), 7 µM. In addition, the CC50 at 72 h in series [1] (HepG2 cells, Table 14, read-out: CC50 (μM) [^3H]TTP incorporation in: HepG2) is 6.5 µM; in [1] (Molt-4 cells, Table 4, read-out: CC50 (μM) [^3H-]TTP incorporation in: Molt-4) it was 2 µM; in [1] (Molt-4 cells, Table 14, read-out: CC50 (μM) [^3H]TTP incorporation in: Molt4) it was 1 µM; in series [2], 35.5 µM. In addition, the 50% effective concentration (EC50) in the series with HIV-1IIIB (setting [4]) came out at 0.05 µM. Also, the “CC50 (μM) [^3H-]TTP incorporation in: PBMC” value in the series on PBMCs is 50/15. Also, the CC50 at 7 days in [3] was determined as 29 µM.

On to `Cc1ccnc2c1NC(=O)c1cccnc1N2C1CC1` [nevirapine], for which, in the series with NNRTI^R, the concentration giving a half-maximal response (EC50) is greater than 10000 nM.

Turning to `CC(C)(C)NC(=O)[C@@H]1C[C@@H]2CCCC[C@@H]2CN1C[C@@H](O)[C@H](Cc1ccccc1)NC(=O)[C@H](CC(N)=O)NC(=O)c1ccc2ccccc2n1` [saquinavir], the EC50 in the series with HXB2-D (wt) was 1.5 nM; with PI^R, 28 nM.
